Counter-ions that a name gives are not always drawn.
Assays:
HEp-2 cell = assay: Potentialization of cytostatic activity of chemotherapeutics by HuIFN-gamma in vitro; type: cell-based, human; details: 2880 min
Protocol: (§1) An aliquot of RPMI 1640 medium supplemented with 15 v/v % fetal calf serum was added with an HuIFN-gamma prepared by the method in Example B-1(3) to a final concentration of 5, 50 or 500 units/ml, and the mixture was inoculated with a malignant human tumor cell to 5×10^5 cell/ml. The resultant was incubated in 5% CO2 incubator at 37°C for three days. As control, the same amount of an HuIFN-gamma preinactivated by 30-minute incubation at 100°C was added to a fresh preparation of the same culture medium, and the mixture was treated similarly as above. After culture, the viable cell was stained with neutral red in accordance with the method as described in Applied Microbiology, Vol.22, No.4, pp.671-677 (1971). Thereafter, the neutral red was eluted with acidified ethanol, and the number of viable cell was determined with the absorbance of the eluate at 540 nm.
(§2) Cytostatic rate (%) was determined with the following equation: Cytostatic rate (%) = ( 1 -(A)/(B)) × 100 [formula] wherein A designates the number of viable cell in the test system, and B, that in the control.
(§3) One ml aliquots of a nutrient culture medium prepared in accordance with the method in Experiment 2-2(1) was inoculated with 10^6 cells of a human malignant tumor cell, and the mixture was cultured for one day. The resultant culture was added with 50 units of an HuIFN-gamma prepared by the method in Example B-1(3) and/or 0.1 ml of saline containing a chemotherapeutic, and cultured at 37°C for two days. As control, a saline free of HuIFN-gamma and chemotherapeutic was used. After the culture, the cytostatic rate (%) was determined in accordance with the method in Experiment 2-2(1). The concentration of the chemotherapeutics were as follows: nimustine hydrochloride (ACNU), 1.0×10^-6 g/ml; fluorouracil (5-FU), 1.5×10^-8 g/ml; doxorubicin (ADM), 1.0×10^-10 g/ml; mitomycin C (MMC), 2.5×10^-9 g/ml; and vincristine sulfate (VCR), 1.5×10^-10 g/ml.

HLE = assay: as above; type: cell-based, human; details: 2880 min
Protocol: as §1, §2, §3

HeLa = assay: as above; type: cell-based, human; details: 2880 min
Protocol: as §1, §2, §3

PC-9 = assay: as above; type: cell-based, human; details: 2880 min
Protocol: as §1, §2, §3

[1] = system: human breast cancer tissue; assay: Cytostatic activity on malignant tumors in vivo (tumor weight); parameters: species or system BALB/c nude mice; details: injected once every day for 20 days; dose/kg/day: HuIFN-gamma 50 units, HuIFN-alpha 500 units, TNF 100 units, MMC 1 mg; control 10.8 g
Protocol: BALB/c nude mice were implanted at their dorsal area with a segment of human breast cancer tissue. From the time when the tumors grew to about 200 mm^3, the nude mice were injected once every day with one or more HuIFN-gamma prepared by the method in Example B-1(3), a lymphokine derived from human lymphoblastoid cell, and/or a chemotherapeutic in saline solution over a period of 20 days.
Thereafter, the nude mice were sacrificed, and the tumors were weighed.
As control, saline was injected similarly as above.

[2] = chemotherapeutic with addition (+) of 50 units HuIFN-gamma, two days, same chemotherapeutic concentrations
[3] = single agent, two days: HuIFN-gamma 50 units, ACNU 1.0×10^-6, 5-FU 1.5×10^-8, ADM 1.0×10^-10, MMC 2.5×10^-9, VCR 1.5×10^-10 g/ml

| Structure (SMILES) | Cytostatic rate (%) (HEp-2 cell; [2]) | Cytostatic rate (%) (HEp-2 cell; [3]) | Cytostatic rate (%) (HLE; [2]) | Cytostatic rate (%) (HLE; [3]) | Cytostatic rate (%) (HeLa; [2]) | Cytostatic rate (%) (HeLa; [3]) | Cytostatic rate (%) (PC-9; [2]) | Cytostatic rate (%) (PC-9; [3]) | Tumor [1] [g] |
| --- | --- | --- | --- | --- | --- | --- | --- | --- | --- |
| COc1cccc2c1C(=O)c1c(O)c3c(c(O)c1C2=O)C[C@@](O)(C(=O)CO)C[C@@H]3O[C@H]1C[C@H](N)[C@H](O)[C@H](C)O1 [ADM, doxorubicin] | 59 | 13 | 62 | 7 | 64 | 17 | 72 | 6 | – |
| Cc1ncc(CNC(=O)N(CCCl)N=O)c(N)n1 [ACNU, nimustine hydrochloride] | 54 | 4 | 63 | 5 | 72 | 5 | 65 | 2 | – |
| CO[C@@]12[C@H](COC(N)=O)C3=C(C(=O)C(C)=C(N)C3=O)N1C[C@@H]1N[C@@H]12 [MMC, mitomycin C] | 61 | 10 | 65 | 12 | 62 | 7 | 64 | 5 | 5.1 ± 0.4 |
| O=c1[nH]cc(F)c(=O)[nH]1 [Example 5-FU, fluorouracil] | 67 | 8 | 71 | 8 | 70 | 12 | 68 | 10 | – |
| CC[C@]1(O)C[C@H]2CN(CCc3c([nH]c4ccccc34)[C@@](C(=O)OC)(c3cc4c(cc3OC)N(C=O)[C@H]3[C@@](O)(C(=O)OC)[C@H](OC(C)=O)[C@]5(CC)C=CCN6CC[C@]43[C@@H]65)C2)C1 [VCR, vincristine sulfate] | 58 | 5 | 58 | 10 | 65 | 10 | 66 | 8 | – |

Reference: patent EP0254593B1, “Preparation and uses of interferon-gamma” (KABUSHIKI KAISHA HAYASHIBARA SEIBUTSU KAGAKU KENKYUJO, priority 1986, dated 1988)
